Assays:
Assay type in all cases: in vivo
[1] = tested on: melon aphids (Aphis gossypii Glover); assay: Mite/insect screen, MA; conditions: Aphis gossypii, foliar, percent mortality, foliar spray on squash, read-out: MA RESULTS %; for mortality at 200 ppm: rate 200 ppm; for mortality at 400 ppm: rate 400 ppm
Procedure, shortened: (§1)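 Foliar spray to runoff (10 psi), 1 h drying; aqueous dilutions from acetone/alcohol emulsifier stock. Mortality (%) after standard exposure.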

[2] = tested on: Pyricularia oryzae (rice blast); assay: whole plant or invertebrate; conditions: Pyricularia oryzae, foliar, read-out: RICE BLAST, Test 1, foliar spray on rice; disease control rating at 400 ppm / 100 ppm
[3] = tested on: Septoria tritici (leaf blotch); assay: Test 1 greenhouse foliar spray screen, leaf blotch on wheat; conditions: Zymoseptoria tritici; Test 1, foliar spray on wheat; disease control rating at 400 ppm / 100 ppm; read-out: LEAF BLOT
[4] = tested on: Twospotted spider mites (Tetranychus urticae Koch); assay: Mite/insect screen, SM; conditions: for mortality at 200 ppm / mortality at 400 ppm: Tetranychus urticae, foliar, read-out: SM RESULTS %; for mortality at 200 ppm: rate 200 ppm; for activity as miticides: summary statement in the description
Procedure, shortened: as §1

corn rootworm = assay: Mite/insect screen, CRW; conditions: percent mortality, read-out: CRW RESULTS %; for mortality at 12 ppm: CRW rate 12.00 ppm; for mortality at 24 ppm: CRW rate 24.00 ppm
Procedure, shortened: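 Following dissolution in equal parts acetone and alcohol with 23 g/L and 13 g/L emulsifier blends and dilution with water, test solutions were scored for percent mortality at the end of standard exposures.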

[5] = tested on: Erysiphe graminis tritici (powdery mildew); assay: Test 1 greenhouse foliar spray screen, powdery mildew on wheat; conditions: Blumeria graminis, foliar, Test 1, foliar spray on wheat; disease control rating at 400 ppm / 100 ppm; read-out: POWD MDEW
[6] = tested on: southern armyworm (Spodopetra eridania Cramer); assay: Mite/insect screen, SAW; conditions: percent mortality, foliar spray on squash; for mortality at 200 ppm / mortality at 400 ppm: Spodoptera eridania, foliar, read-out: SAW RESULTS %; for mortality at 200 ppm: rate 200 ppm
Procedure, shortened: as §1

[7] = tested on: Pseudoperonospora cubensis (downy mildew); assay: Test 1 greenhouse foliar spray screen, downy mildew on squash; conditions: Pseudoperonospora cubensis, foliar, Test 1, foliar spray on squash; disease control rating at 400 ppm / 100 ppm; read-out: DOWN MDEW
[8] = tested on: Cercospora beticola (leaf spot); assay: Test 1 greenhouse foliar spray screen, leaf spot on sugar beet; conditions: Cercospora beticola; Test 1, foliar spray on sugar beet; disease control rating at 400 ppm / 100 ppm
[9] = tested on: Botrytis cinerea (gray mold); assay: Test 1 greenhouse foliar spray screen, gray mold on grape berries; conditions: Botrytis cinerea, foliar; Test 1, spray on grape berries; disease control rating at 400 ppm / 100 ppm
[10] = tested on: Venturia inaequalis (apple scab); assay: Test 1 greenhouse foliar spray screen, apple scab on apple seedling; conditions: Venturia inaequalis; Test 1, foliar spray on apple seedling; disease control rating at 400 ppm / 100 ppm; read-out: APPL SCAB
[11] = tested on: Puccinia recondita tritici (leaf rust); assay: Test 1 greenhouse foliar spray screen, leaf rust on wheat; conditions: Puccinia recondita, foliar, Test 1, foliar spray on wheat; disease control rating at 400 ppm / 100 ppm
[12] = percent mortality, foliar spray on squash
[13] = percent mortality, rate 400 ppm, foliar spray on squash

SMILES | mortality at 200 ppm [1] [%] | pest or weed control at 400 ppm [2] [%] | pest or weed control at 400 ppm [3] [%] | mortality at 200 ppm [4, 12] [%] | mortality at 12 ppm (corn rootworm) [%] | pest or weed control at 400 ppm [5] [%] | mortality at 200 ppm [6] [%] | pest or weed control at 400 ppm [7] [%] | pest or weed control at 400 ppm [8] [%] | pest or weed control at 400 ppm [9] [%] | pest or weed control at 400 ppm [10] [%] | pest or weed control at 400 ppm [11] [%] | mortality at 400 ppm [1] [%] | mortality at 400 ppm [4, 13] [%] | mortality at 24 ppm (corn rootworm) [%] | mortality at 400 ppm ([6]; rate 400 ppm) [%] | activity as miticides [4] | SM RESULTS % [4, 13] [%] | SAW RESULTS % ([6]; rate 400 ppm) [%]
Clc1ccc(CCOc2ccnc3ccccc23)cc1 [Example 211, 4-[2-(4-chlorophenyl)ethoxy]quinoline] | 40 | 90 to 100 | 90 to 100 | 10 | 0 | 90 to 100 | 0 | 90 to 100 | 90 to 100 | 0 to 19 | 0 to 19 | 90 to 100 |  |  |  |  |  |  | 
CC(Cc1ccccc1)Oc1ccnc2ccccc12 (stereo not shown) [Example 213, 4-(1-methyl-2-phenylethoxy)quinoline] | 0 | 90 to 100 | 20 to 89 | 0 | 0 | 20 to 89 | 0 | 90 to 100 | 0 to 19 | 0 to 19 | 20 to 89 | 90 to 100 |  |  |  |  |  |  | 
CC(COc1ccnc2c(F)cccc12)c1ccccc1 (stereo not shown) [Example 220, 4-(2-phenylpropoxy)-8-fluoroquinoline] | 0 | 20 to 89 | 0 to 19 | 0 | 0 | 90 to 100 | 0 | 90 to 100 | 0 to 19 | 0 to 19 | 20 to 89 | 90 to 100 | 0 | 0 | 0 | 0 |  |  | 
Fc1ccc(CCOc2ccnc3c(F)cccc23)cc1 [Example 222, 8-fluoro-4-[2-(4-fluorophenyl)ethoxy]quinoline] | 50 | 20 to 89 | 90 to 100 | 0 | 0 | 20 to 89 | 0 | 90 to 100 | 20 to 89 | 0 to 19 | 90 to 100 | 90 to 100 | 40 | 0 | 0 | 0 |  |  | 
COc1ccccc1CCOc1ccnc2ccccc12 [Example 229, 4-[2-(2-methoxyphenyl)ethoxy]quinoline] | 50 | 90 to 100 | 20 to 89 | 50 | 0 | 20 to 89 | 0 | 90 to 100 | 0 to 19 | 0 to 19 | 0 to 19 | 90 to 100 | 0 | 0 | 0 | 0 |  |  | 
Clc1ccc2c(OCCc3ccc(-c4ccccc4)cc3)ccnc2c1 [Example 230, 7-chloro-4-[2-(1,1'-biphenyl)-4-yl-ethoxy]quinoline] | 90 | 0 to 19 | 0 to 19 | 100 | 0 | 90 to 100 | 0 | 0 to 19 | 0 to 19 | 0 to 19 | 0 to 19 | 20 to 89 | 0 | 80 | 0 | 0 | particularly excellent activity |  | 
Fc1ccc2c(OCCc3ccc(-c4ccccc4)cc3)ccnc2c1 [Example 233, 4-[2-(1,1'-biphenyl)-4-ylethoxy]-7-fluoroquinoline] | 50 | 90 to 100 | 20 to 89 | 100 | 0 | 20 to 89 | 0 | 20 to 89 | 0 to 19 | 0 to 19 | 0 to 19 | 90 to 100 | 80 | 80 | 0 | 0 | particularly excellent activity |  | 
Fc1ccc2c(OCCc3ccc(Cl)cc3)ccnc2c1 [Example 234, 4-[2-(4-chlorophenyl)ethoxy]-7-fluoroquinoline] | 50 | 20 to 89 | 20 to 89 | 50 | 0 | 20 to 89 | 60 | 20 to 89 | 20 to 89 | 0 to 19 | 0 to 19 | 90 to 100 | 100 | 30 | 0 | 0 |  |  | 
Cc1ccc(CCOc2ccnc3cc(F)ccc23)cc1 [Example 235, 7-fluoro-4-[2-(4-methylphenyl)ethoxy]quinoline] | 0 | 90 to 100 | 20 to 89 | 0 | 0 | 20 to 89 | 80 | 20 to 89 | 0 to 19 | 0 to 19 | 0 to 19 | 90 to 100 | 50 | 0 | 0 | 0 |  |  | 
Fc1ccc(CCOc2ccnc3cc(Cl)ccc23)cc1 [Example 236, 7-chloro-4-[2-(4-fluorophenyl)ethoxy]quinoline] | 0 | 0 to 19 | 0 to 19 | 0 | 0 | 90 to 100 | 0 | 0 to 19 | 0 to 19 | 0 to 19 | 0 to 19 | 20 to 89 |  | 0 |  | 0 |  | 0 | 0
Fc1cccc2c(OCCc3cccc4ccccc34)ccnc12 [Example 244, 8-fluoro-4-[2-(1-naphthyl)ethoxy]quinoline] | 40 | 90 to 100 | 20 to 89 | 0 | 0 | 20 to 89 | 0 | 20 to 89 | 0 to 19 | 0 to 19 | 0 to 19 | 20 to 89 |  |  |  |  |  |  | 
c1csc(CCOc2ccnc3ccccc23)c1 [Example 245, 4-[2-(2-thienyl)ethoxy]quinoline] | 0 | 90 to 100 | 0 to 19 | 0 | 0 | 20 to 89 | 0 | 90 to 100 | 0 to 19 | 0 to 19 | 0 to 19 | 90 to 100 |  |  |  |  |  |  | 
